Laboratory results from PubChem BioAssay (NCI).
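1) Cells in 96-well plates. 2) Compound, 48 h, 5 concentrations. 3) Linear interpolation between surrounding doses. 4) Unreached endpoint = highest concentration. GI50 = concentration required for 50% inhibition of growth. The concentration for full growth arrest is given as TGI.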

Legend:
Test in all cases: inhibition of tumour cell growth, NCI panel, 48 h
NCI/ADR-RES ovarian = tested on: NCI/ADR-RES ovarian
COLO 205 colon = tested on: COLO 205 colon
MOLT-4 leukemia = tested on: MOLT-4 leukemia
LOX IMVI melanoma = tested on: LOX IMVI melanoma
HCC-2998 colon = tested on: HCC-2998 colon
RPMI-8226 leukemia = tested on: RPMI-8226 leukemia
OVCAR-3 ovarian = tested on: OVCAR-3 ovarian
A498 renal = tested on: A498 renal
SK-MEL-28 melanoma = tested on: SK-MEL-28 melanoma
MCF7 breast = tested on: MCF7 breast
EKVX NSCLC = tested on: EKVX NSCLC
HOP-92 NSCLC = tested on: HOP-92 NSCLC
M14 melanoma = tested on: M14 melanoma
SK-MEL-2 melanoma = tested on: SK-MEL-2 melanoma
K-562 leukemia = tested on: K-562 leukemia
SNB-19 CNS = tested on: SNB-19 CNS
HCT-15 colon = tested on: HCT-15 colon
NCI-H23 lung = tested on: NCI-H23 lung
TK-10 renal = tested on: TK-10 renal
UO-31 renal = tested on: UO-31 renal
NCI-H522 lung = tested on: NCI-H522 lung
UACC-257 melanoma = tested on: UACC-257 melanoma
RXF 393 renal = tested on: RXF 393 renal
SNB-75 CNS = tested on: SNB-75 CNS
PC-3 prostate = tested on: PC-3 prostate
MDA-MB-435 = tested on: MDA-MB-435
HOP-62 NSCLC = tested on: HOP-62 NSCLC
SF-539 CNS = tested on: SF-539 CNS
DU-145 prostate = tested on: DU-145 prostate
HL-60(TB) leukemia = tested on: HL-60(TB) leukemia
U251 CNS = tested on: U251 CNS
KM12 colon = tested on: KM12 colon
BT-549 breast = tested on: BT-549 breast
HS 578T breast = tested on: HS 578T breast
IGROV1 ovarian = tested on: IGROV1 ovarian
OVCAR-4 ovarian = tested on: OVCAR-4 ovarian
CAKI-1 renal = tested on: CAKI-1 renal
SW-620 colon = tested on: SW-620 colon
SK-MEL-5 melanoma = tested on: SK-MEL-5 melanoma
NCI-H226 lung = tested on: NCI-H226 lung
MALME-3M melanoma = tested on: MALME-3M melanoma
CCRF-CEM leukemia = tested on: CCRF-CEM leukemia
SN12C renal = tested on: SN12C renal
OVCAR-8 ovarian = tested on: OVCAR-8 ovarian
786-0 renal = tested on: 786-0 renal
MDA-MB-231 breast = tested on: MDA-MB-231 breast
HCT-116 colon = tested on: HCT-116 colon
HT29 colon = tested on: HT29 colon
SF-268 CNS = tested on: SF-268 CNS
SF-295 CNS = tested on: SF-295 CNS
A549 NSCLC = tested on: A549 NSCLC
T-47D breast = tested on: T-47D breast
SK-OV-3 ovarian = tested on: SK-OV-3 ovarian
SR leukemia = tested on: SR leukemia
ACHN renal = tested on: ACHN renal
UACC-62 melanoma = tested on: UACC-62 melanoma
NCI-H460 lung = tested on: NCI-H460 lung
OVCAR-5 ovarian = tested on: OVCAR-5 ovarian

Molecule `NCCCCCn1c2c(c3ccccc3c1=O)C(=O)c1ccccc1-2` has a GI50 (NCI/ADR-RES ovarian) of 1410 nM, a TGI (NCI/ADR-RES ovarian) of 4860 nM and a GI50 (COLO 205 colon) of 639 nM. It also gave a TGI (COLO 205 colon) of 3270 nM, a GI50 (MOLT-4 leukemia) of 28.5 nM and a TGI (MOLT-4 leukemia) of 1740 nM. For the same molecule, the GI50 (LOX IMVI melanoma) was 221 nM, the TGI (LOX IMVI melanoma) was 1760 nM and the GI50 (HCC-2998 colon) was 529 nM. The TGI (HCC-2998 colon) was 2630 nM, the GI50 (RPMI-8226 leukemia) was 222 nM and the TGI (RPMI-8226 leukemia) was 1510 nM. For the same molecule, the GI50 (OVCAR-3 ovarian) was 1100 nM, the TGI (OVCAR-3 ovarian) was 6740 nM and the GI50 (A498 renal) was 1430 nM. For the same molecule, the TGI (A498 renal) was 4070 nM, the GI50 (SK-MEL-28 melanoma) was 1460 nM and the TGI (SK-MEL-28 melanoma) was 3160 nM. The GI50 (MCF7 breast) was 69.6 nM, the TGI (MCF7 breast) was 3490 nM and the GI50 (EKVX NSCLC) was 4080 nM. For the same molecule, the TGI (EKVX NSCLC) was 17100 nM, the GI50 (HOP-92 NSCLC) was 435 nM and the TGI (HOP-92 NSCLC) was 3720 nM. For the same molecule, the GI50 (M14 melanoma) was 1410 nM, the TGI (M14 melanoma) was 3220 nM and the GI50 (SK-MEL-2 melanoma) was 1410 nM. The TGI (SK-MEL-2 melanoma) was 2960 nM, the GI50 (K-562 leukemia) was 195 nM and the TGI (K-562 leukemia) was 2470 nM. It also gave a GI50 (SNB-19 CNS) of 465 nM, a TGI (SNB-19 CNS) of 7660 nM and a GI50 (HCT-15 colon) of 163 nM. The TGI (HCT-15 colon) was 2340 nM, the GI50 (NCI-H23 lung) was 314 nM and the TGI (NCI-H23 lung) was 1470 nM. The GI50 (TK-10 renal) was 714 nM, the TGI (TK-10 renal) was 7080 nM and the GI50 (UO-31 renal) was 238 nM. For the same molecule, the TGI (UO-31 renal) was 1530 nM, the GI50 (NCI-H522 lung) was 215 nM and the TGI (NCI-H522 lung) was 1690 nM. For the same molecule, the GI50 (UACC-257 melanoma) was 2000 nM, the TGI (UACC-257 melanoma) was 4700 nM and the GI50 (RXF 393 renal) was 2830 nM. The TGI (RXF 393 renal) was > 26300 nM, the GI50 (SNB-75 CNS) was 1200 nM and the TGI (SNB-75 CNS) was 6920 nM. The GI50 (PC-3 prostate) was 1230 nM, the TGI (PC-3 prostate) was 5370 nM and the GI50 (MDA-MB-435) was 1360 nM. It also gave a TGI (MDA-MB-435) of 3620 nM, a GI50 (HOP-62 NSCLC) of 221 nM and a TGI (HOP-62 NSCLC) of 2190 nM. The GI50 (SF-539 CNS) was 864 nM, the TGI (SF-539 CNS) was 2480 nM and the GI50 (DU-145 prostate) was 266 nM. For the same molecule, the GI50 (HL-60(TB) leukemia) was 159 nM, the TGI (HL-60(TB) leukemia) was 744 nM and the GI50 (U251 CNS) was 232 nM. It also gave a TGI (U251 CNS) of 4110 nM, a GI50 (KM12 colon) of 284 nM and a TGI (KM12 colon) of 2480 nM. For the same molecule, the GI50 (BT-549 breast) was 1570 nM, the TGI (BT-549 breast) was 4600 nM and the GI50 (HS 578T breast) was 1770 nM. For the same molecule, the TGI (HS 578T breast) was 12900 nM, the GI50 (IGROV1 ovarian) was 241 nM and the TGI (IGROV1 ovarian) was 2750 nM. For the same molecule, the GI50 (OVCAR-4 ovarian) was 1540 nM, the TGI (OVCAR-4 ovarian) was 5580 nM and the GI50 (CAKI-1 renal) was 749 nM. The TGI (CAKI-1 renal) was 14000 nM, the GI50 (SW-620 colon) was 166 nM and the TGI (SW-620 colon) was 4090 nM. For the same molecule, the GI50 (SK-MEL-5 melanoma) was 617 nM, the TGI (SK-MEL-5 melanoma) was 2050 nM and the GI50 (NCI-H226 lung) was 479 nM. The TGI (NCI-H226 lung) was 2160 nM, the GI50 (MALME-3M melanoma) was 1130 nM and the TGI (MALME-3M melanoma) was 3170 nM. For the same molecule, the GI50 (CCRF-CEM leukemia) was 106 nM, the TGI (CCRF-CEM leukemia) was 1160 nM and the GI50 (SN12C renal) was 305 nM. For the same molecule, the TGI (SN12C renal) was 3970 nM, the GI50 (OVCAR-8 ovarian) was 497 nM and the TGI (OVCAR-8 ovarian) was 10500 nM. It also gave a GI50 (786-0 renal) of 274 nM, a TGI (786-0 renal) of 2010 nM and a GI50 (MDA-MB-231 breast) of 1760 nM. It also gave a TGI (MDA-MB-231 breast) of 6090 nM, a GI50 (HCT-116 colon) of 151 nM and a TGI (HCT-116 colon) of 3910 nM. It also gave a GI50 (HT29 colon) of 246 nM, a TGI (HT29 colon) of 4660 nM and a GI50 (SF-268 CNS) of 321 nM. The TGI (SF-268 CNS) was 3060 nM, the GI50 (SF-295 CNS) was 527 nM and the TGI (SF-295 CNS) was 6380 nM. The GI50 (A549 NSCLC) was 452 nM, the GI50 (T-47D breast) was 451 nM and the TGI (T-47D breast) was 2140 nM. The GI50 (SK-OV-3 ovarian) was 531 nM, the TGI (SK-OV-3 ovarian) was 2160 nM and the GI50 (SR leukemia) was 35 nM. For the same molecule, the TGI (SR leukemia) was 726 nM, the GI50 (ACHN renal) was 190 nM and the TGI (ACHN renal) was 909 nM. For the same molecule, the GI50 (UACC-62 melanoma) was 1420 nM, the TGI (UACC-62 melanoma) was 3370 nM and the GI50 (NCI-H460 lung) was 53.7 nM. It also gave a TGI (NCI-H460 lung) of 1020 nM, a GI50 (OVCAR-5 ovarian) of 999 nM and a TGI (OVCAR-5 ovarian) of 3840 nM.
